The values that follow come from PubChem BioAssay (NCI).

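Exposure lasted 48 hours, with cells grown in 96-well plates and compounds tested at five concentrations. GI50 = concentration required for 50% inhibition of growth. TGI marks complete inhibition of growth.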

Test systems include K-562 leukemia; UACC-257 melanoma; PC-3 prostate; SNB-19 CNS; SK-OV-3 ovarian; OVCAR-4 ovarian; COLO 205 colon; TK-10 renal.
What all share (assay): growth of human tumour cells (NCI), 48 h

On to `C/C(=C\c1csc(C)n1)[C@@H]1C[C@@H]2O[C@]2(C)CCC[C@H](C)[C@H](O)[C@@H](C)C(=O)C(C)(C)[C@@H](O)CC(=O)N1`, for which the GI50 was 0.000106 µM with K-562 leukemia; 0.000138 µM in the assay on UACC-257 melanoma; less than 1e-05 µM in the assay with PC-3 prostate; 0.000347 µM with SNB-19 CNS; 0.00477 µM in the assay on SK-OV-3 ovarian; 0.000318 µM with OVCAR-4 ovarian. For the same molecule, the GI50 was 0.000182 µM in the assay with COLO 205 colon and 0.00534 µM in the assay on TK-10 renal. Further, the TGI in the assay with K-562 leukemia is 0.00033 µM; with UACC-257 melanoma, 0.000277 µM; in the assay on PC-3 prostate, less than 1e-05 µM; in the assay on SNB-19 CNS it was 0.000508 µM; with SK-OV-3 ovarian, 0.0595 µM; with OVCAR-4 ovarian, 0.000821 µM. Further, the TGI with COLO 205 colon came to 0.000438 µM; with TK-10 renal, 0.0411 µM.

`COc1cc(NC(=O)COc2ccccc2)c(C(N)=O)cc1OC`: the GI50 in the assay with K-562 leukemia was 0.31 µM; in the assay on UACC-257 melanoma, greater than 100 µM; in the assay with PC-3 prostate, 2.23 µM; in the assay on SNB-19 CNS, 3.31 µM; with SK-OV-3 ovarian, 3.58 µM; in the assay on OVCAR-4 ovarian, greater than 100 µM. Further, the GI50 in the assay with COLO 205 colon was 0.453 µM; in the assay with TK-10 renal it was 14.4 µM. Also, the TGI was greater than 100 µM with K-562 leukemia; greater than 100 µM with UACC-257 melanoma; greater than 100 µM with PC-3 prostate; 51.9 µM with SNB-19 CNS; 22.7 µM in the assay with SK-OV-3 ovarian; greater than 100 µM with OVCAR-4 ovarian. Further, the results for the TGI in the assay with COLO 205 colon and with TK-10 renal were 5.13 µM and greater than 100 µM, respectively.

With `CN1CCN(C(=O)/C=C/c2ccc([N+](=O)[O-])o2)CC1`, the GI50 in the assay with K-562 leukemia was 11 µM; with UACC-257 melanoma it was 7.78 µM; with PC-3 prostate, 21.6 µM; with SNB-19 CNS it was 38.1 µM; in the assay with SK-OV-3 ovarian, 29 µM; in the assay on OVCAR-4 ovarian, 14.2 µM. In addition, the results for the GI50 in the assay on COLO 205 colon and with TK-10 renal were 3.76 µM and 31.7 µM, respectively. The TGI in the assay with K-562 leukemia was 40.4 µM; in the assay on UACC-257 melanoma, 21.2 µM; in the assay with PC-3 prostate, greater than 100 µM; in the assay with SNB-19 CNS it was greater than 100 µM; in the assay with SK-OV-3 ovarian, greater than 100 µM; in the assay with OVCAR-4 ovarian, 27.9 µM. The TGI was 15 µM in the assay with COLO 205 colon and greater than 100 µM in the assay with TK-10 renal.

Regarding `COc1cc(/C=C/C(=O)c2nc3cc(F)ccc3nc2C)cc(OC)c1OC`, the GI50 is 2.01 µM with K-562 leukemia; 5.51 µM with UACC-257 melanoma; 6.05 µM with PC-3 prostate; greater than 51.1 µM with SNB-19 CNS; greater than 100 µM with SK-OV-3 ovarian; greater than 40.7 µM in the assay on OVCAR-4 ovarian. For the same molecule, the values for the GI50 in the assay on COLO 205 colon and in the assay with TK-10 renal were 7.56 µM and greater than 100 µM, respectively. Moreover, the TGI was greater than 23.9 µM in the assay on K-562 leukemia; greater than 100 µM with UACC-257 melanoma; greater than 100 µM in the assay on PC-3 prostate; greater than 100 µM with SNB-19 CNS; greater than 100 µM in the assay with SK-OV-3 ovarian; greater than 100 µM with OVCAR-4 ovarian. The TGI in the assay on COLO 205 colon and in the assay with TK-10 renal was greater than 100 µM in each case.

Consider `CC1(C)CC2=NO[Se]3=C2C(=NO3)C1`, for which the TGI with K-562 leukemia came out at 12.4 µM; with UACC-257 melanoma it was 5.64 µM; in the assay with PC-3 prostate it was 3.24 µM; in the assay with SNB-19 CNS, 15.3 µM; in the assay on SK-OV-3 ovarian, 13.1 µM; in the assay on OVCAR-4 ovarian it was 21.7 µM. The TGI in the assay with COLO 205 colon was found to be 3.73 µM; in the assay on TK-10 renal, 19.5 µM.

`CC(=O)O[C@H]1C[C@@H]2[C@@]3(C)CC[C@H]4C[C@@]4(C)[C@@H]3CC[C@@]2(C)C2=CCC3=C(COC3=O)[C@]21C`: the GI50 with K-562 leukemia was 40.4 µM; with UACC-257 melanoma, 34.2 µM; in the assay with PC-3 prostate, 18.4 µM; in the assay with SNB-19 CNS, 24.3 µM; with SK-OV-3 ovarian, 32.6 µM; with OVCAR-4 ovarian, 25 µM. Besides, the GI50 in the assay with COLO 205 colon was 34 µM; with TK-10 renal, 20.4 µM. For the same molecule, the TGI in the assay on K-562 leukemia was greater than 100 µM; in the assay with UACC-257 melanoma, greater than 100 µM; with PC-3 prostate it was 46.1 µM; with SNB-19 CNS it was 69.7 µM; with SK-OV-3 ovarian it was greater than 100 µM; in the assay on OVCAR-4 ovarian, 60.2 µM. Also, the TGI is greater than 100 µM in the assay on COLO 205 colon and 48.5 µM in the assay with TK-10 renal.

On to `O=C1c2ccccc2N1C(=O)c1ccccc1[N+](=O)[O-]`, for which the TGI in the assay on K-562 leukemia, in the assay on UACC-257 melanoma, in the assay with PC-3 prostate, with SNB-19 CNS, in the assay on SK-OV-3 ovarian and with OVCAR-4 ovarian was greater than 100 µM throughout. Further, the TGI in the assay with COLO 205 colon and in the assay on TK-10 renal was greater than 100 µM each time.

As for `CCOC(=O)C#Cc1c(C(=O)OCC)nnn1[C@@H]1O[C@H](COC)[C@@H](OC)[C@H]1OC`, the GI50 is 1.85 µM in the assay on K-562 leukemia; 3.38 µM in the assay on UACC-257 melanoma; 16.7 µM in the assay on PC-3 prostate; 69.4 µM in the assay on SNB-19 CNS; 67.5 µM with SK-OV-3 ovarian; 2.02 µM in the assay on OVCAR-4 ovarian. For the same molecule, the GI50 in the assay with COLO 205 colon is 1.94 µM; in the assay with TK-10 renal, 1.86 µM. For the same molecule, the TGI with K-562 leukemia was 7.97 µM; with UACC-257 melanoma, 8.29 µM; in the assay with PC-3 prostate it was 31.7 µM; with SNB-19 CNS, greater than 100 µM; in the assay on SK-OV-3 ovarian, greater than 100 µM; in the assay on OVCAR-4 ovarian, 4.43 µM. In addition, the TGI in the assay on COLO 205 colon is 3.83 µM; in the assay on TK-10 renal, 3.45 µM.

In the case of `O=C(O)CSc1cc(NS(=O)(=O)c2ccc(Br)cc2)c2ccccc2c1O`, the GI50 in the assay on K-562 leukemia is 19.7 µM; in the assay on UACC-257 melanoma, 4.95 µM; with PC-3 prostate, 5.78 µM; in the assay with SNB-19 CNS it was 17.1 µM; with SK-OV-3 ovarian it was 18.7 µM; in the assay on OVCAR-4 ovarian it was 1.62 µM. The GI50 is 13.1 µM with COLO 205 colon and 20.3 µM with TK-10 renal. Besides, the TGI with K-562 leukemia is greater than 59.6 µM; with UACC-257 melanoma it was 12.1 µM; in the assay with PC-3 prostate, 43.8 µM; with SNB-19 CNS, 34.2 µM; in the assay on SK-OV-3 ovarian it was 33.2 µM; in the assay with OVCAR-4 ovarian, 3.05 µM. The figures for the TGI with COLO 205 colon and in the assay on TK-10 renal were 28.4 µM and 34.7 µM, respectively.

In the case of `FC(F)(F)c1cccc(CNC2CCN(CCc3ccccc3)CC2)c1`, the GI50 with K-562 leukemia was 15.5 µM; in the assay on UACC-257 melanoma, 17.2 µM; with PC-3 prostate, 32 µM; in the assay with SNB-19 CNS, 30.8 µM; with SK-OV-3 ovarian, 38.9 µM; with OVCAR-4 ovarian, 23.1 µM. Also, the GI50 is 16.9 µM in the assay with COLO 205 colon and 30.7 µM in the assay on TK-10 renal. For the same molecule, the TGI in the assay with K-562 leukemia was 42.9 µM; in the assay on UACC-257 melanoma it was 33.4 µM; in the assay on PC-3 prostate, greater than 100 µM; in the assay on SNB-19 CNS, greater than 100 µM; with SK-OV-3 ovarian it was greater than 100 µM; in the assay on OVCAR-4 ovarian, greater than 100 µM. For the same molecule, the TGI in the assay with COLO 205 colon was 34.3 µM; in the assay on TK-10 renal, greater than 100 µM.
